Reference: patent US20200397795A1, “PROPHYLACTIC TREATMENT OF VENOUS THROMBOEMBOLISM” (JANSSEN PHARMACEUTICALS, INC., priority 2019, published 2020)
Several values for one entry are separate records, joined by “and”; a condition that tells them apart may be missing. Equal values may be shown once.

How the values were obtained:
[1] = system: coagulation parameters (PT, PiCT, D-dimer); experiment: MAGELLAN (Study 1): pharmacodynamics (PT, PiCT, D-dimer); type: in vivo, human; settings: for Prothrombin time, overall median: full profile sampling
Experimental: Full profile pharmacodynamics (PD) sampling was performed in parallel to the PK samples on Day 1 and Day 10. In addition, sparse PD sampling was performed in nearly all subjects at 5 predefined time points: prior to study drug administration, around the time of peak plasma concentrations (2 to 4 hours after intake of the rivaroxaban tablet or rivaroxaban placebo tablet) on the first, 10th and 35th day of study drug administration, and before study drug administration on Day 10.
Coagulation parameters assessed included international normalized ratio (INR), prothrombin time (PT), prothrombinase-induced clotting time (PiCT), and the fibrin degradation product, D-dimer. Pharmacodynamic parameters assessed included changes to baseline of the maximal effect (Emax) and changes to baseline at trough (Etrough).
Two sets of samples were evaluated for PD parameters: Full profile PD sampling in parallel to the PK samples on Day 1 and Day 10. In addition, sparse PD sampling in nearly all subjects at 5 predefined time points: prior to study drug administration, approximately the time of peak plasma concentrations (2 to 4 hours after intake of the rivaroxaban tablet or rivaroxaban placebo tablet) on the first, 10th and 35th day of study drug administration, and before study drug administration on Day 10.

[2] = system: venous thromboembolism (VTE) in MAGELLAN subpopulation; experiment: Retrospective analysis of MAGELLAN subpopulation (five bleeding risk factors excluded): efficacy; type: in vivo, human
Text: (§1) Using key exclusion criteria from Study 2: MARINER to exclude subjects with a higher risk of bleeding, a subpopulation of Study 1: MAGELLAN was retrospectively analyzed to re-evaluate benefit-risk in this subpopulation, which included efficacy endpoints of symptomatic VTE and VTE-related death and safety endpoints of major bleeding events. The key exclusion criteria from Study 2: MARINER that were retrospectively applied to the Study 1: MAGELLAN population for this analysis included: active gastroduodenal ulcer within 3 months of randomization/currently symptomatic; any bleeding within 3 months prior to randomization or during index hospitalization; active cancer at randomization; medical history of severe bronchiectasis/pulmonary cavitation; or dual antiplatelet therapy at baseline. Subjects that met one or more of these criteria prior to or at randomization using standardized MedDRA queries or preferred terms of MedDRA version 13.1 based on data entered into the case report forms in the original MAGELLAN database were excluded from the subpopulation analysis.
(§2) The MAGELLAN study (Study 1) randomized 8,101 patients from 562 sites in 52 countries and the safety population of patients that received at least one dose of study medication was 7,998 patients. The five key risk factors for major bleeding events in MAGELLAN were identified using study data forms as described herein. With the retrospective use of these risk factors, 1,551 patients were excluded from MAGELLAN and the remaining 6,447 patients, approximately 80% of MAGELLAN, represented the subpopulation. Patients in both treatment groups had no differences in baseline characteristics, and had similar medical histories, with at least 99% of patients having complete immobility or decreased mobility and median total number of days in hospital of 10.

[3] = system: bleeding events in MAGELLAN subpopulation; experiment: Retrospective analysis of MAGELLAN subpopulation: safety (bleeding); type: in vivo
Text: as §1, §2

[4] = system: bleeding events in patients hospitalized for acute medical illness; experiment: MAGELLAN (Study 1): safety, bleeding events and adverse events; type: in vivo, human
Text: The safety component of Criteria for Evaluation was the primary safety endpoint of incidence of the composite of treatment-emergent major bleeding events and non-major clinically relevant bleeding events observed during treatment and not later than 2 days after the last intake of double-blind study drug.
The primary safety outcome of the study was the treatment-emergent clinically relevant bleeding events, which were a composite of treatment-emergent adjudicated major bleeding events and clinically relevant non-major bleeding events.
The safety analysis was performed on 7998 randomized subjects who received at least one dose of study drug, rivaroxaban (3997 subjects) or enoxaparin (4001 subjects).
The primary safety outcome of the study was the assessment of clinically relevant bleeding events, which are a composite of treatment-emergent adjudicated major bleeding events and clinically relevant non-major bleeding events.

[5] = entire study duration (Day 1 to 90)
[6] = rivaroxaban-enoxaparin phase (Day 1 to 10)
[7] = rivaroxaban-enoxaparin/placebo phase (Day 1 to 35)
[8] = rivaroxaban-placebo phase (Day 10 to 35)

O=C(NC[C@H]1CN(c2ccc(N3CCOCC3=O)cc2)C(=O)O1)c1ccc(Cl)s1 [Rivaroxaban, 5-chloro-N-({(5S)-2-oxo-3-[4-(3-oxo-4-morpholinyl)phenyl]-1,3,oxazolidin-5-yl}methyl)-2-thiophenecarboxamide]
Mean peak concentration expressed in IU/mL (PiCT two step) ([1]; Day 1): below the lower limit of quantitation
Mean peak concentration of rivaroxaban (PiCT one step) ([1]; Day 1): 198.8 µg/L
Mean peak concentration expressed in IU/mL (PiCT two step) ([1]; Day 10): below the lower limit of quantitation
Mean peak concentration of rivaroxaban (PiCT one step) ([1]; Day 10): 202.78 µg/L
Mean peak concentration of rivaroxaban (PiCT one step) ([1]; Day 35): 168 µg/L
D-dimer, median ([1]; acute infectious disease, Baseline): 1.76 µg/mL
D-dimer, median ([1]; acute infectious disease, Day 1 peak): 2.07 µg/mL
D-dimer, median ([1]; acute infectious disease, Day 10 peak): 2.13 µg/mL
D-dimer, median ([1]; acute infectious disease, Day 10 trough): 1.74 µg/mL
D-dimer, median ([1]; acute respiratory insufficiency, Baseline): 1.48 µg/mL
D-dimer, median ([1]; acute respiratory insufficiency, Day 1 peak): 1.44 µg/mL
D-dimer, median ([1]; acute respiratory insufficiency, Day 10 peak): 1.37 µg/mL
D-dimer, median ([1]; acute respiratory insufficiency, Day 10 trough): 1.18 µg/mL
D-dimer, median ([1]; entire study population, Baseline): 0.94 µg/mL
D-dimer, median ([1]; entire study population, Day 1 peak): 0.90 µg/mL
D-dimer, median ([1]; entire study population, Day 10 peak): 0.64 µg/mL
D-dimer, median ([1]; entire study population, Day 35 peak): 0.45 µg/mL
Prothrombin time, overall median ([1]; peak Day 1): 23.5 s
Prothrombin time, overall median ([1]; peak Day 10): 23.2 s
Change in clotting time, PiCT two step ([1]; sparse sampling): No change
Prothrombin time, median ([1]; sparse sampling, Baseline): 14.3 s
Prolongation of PiCT one step assay ([1]; sparse sampling, Day 1): 14.6 s
Prothrombin time, median ([1]; sparse sampling, Day 1 peak): 19.3 s
Prolongation of PiCT one step assay ([1]; sparse sampling, Day 10): 13.1 s
Prothrombin time, median ([1]; sparse sampling, Day 10 peak): 19.3 s
Prothrombin time, median ([1]; sparse sampling, Day 35 peak): 18.6 s
Primary efficacy endpoint, RR vs enoxaparin ([2]; Day 10, per-protocol): 0.820
Primary efficacy endpoint outcome, incidence ([2]; Day 10, per-protocol analysis set): 2.4%
Asymptomatic lower extremity proximal DVT, incidence ([2]; Day 35): 3.0%
VTE-related death, incidence ([2]; Day 35): 0.6%
Primary efficacy outcome, RR vs enoxaparin ([2]; Day 35, mITT): 0.68
Primary efficacy outcome, incidence ([2]; Day 35, mITT): 3.9%
Major bleeding, relative risk ([3]; human, in vivo, 10 day): 1.19
Clinically relevant bleeding (major and NMCR), incidence ([3]; human, in vivo, 35 day): 3.5%
Clinically relevant bleeding, RR vs enoxaparin ([3]; human, in vivo, 35 day): 2.35
Major bleeding, RR vs enoxaparin-placebo ([3]; human, in vivo, 35 day): 1.48
Major bleeding, incidence ([3]; human, in vivo, 35 day): 0.68%
Fatal bleeds, number ([3]; post-discharge phase, entire population and subpopulation): 2
Fatal bleeds, incidence ([3]; subpopulation, Day 10): less than 0.1%
Fatal bleeds, number ([3]; subpopulation, Day 10): 1
Fatal bleeds, incidence ([3]; subpopulation, Day 35): less than 0.1%
Fatal bleeding events, number ([4]; Day 1 to 10, entire population): 5 cases
Treatment-emergent fatal bleeding events, number ([4]; Day 1 to 35): 7 subjects
Major bleeding events, incidence ([4]; Day 1 to Day 10): 0.6%
Intracranial bleeding site (critical site bleeding), incidence ([4]; Day 1 to Day 35): 0.1%
Investigator-reported SAEs, incidence ([4]; Day 1 to Day 35): 2.0%
Investigator-reported TEAEs, incidence ([4]; Day 1 to Day 35): 12.5%
Investigator-reported drug-related TEAEs, incidence ([4]; Day 1 to Day 35): 6.9%
Major bleeding events, incidence ([4]; Day 1 to Day 35): 1.1%
Major bleeding events, incidence ([4]; Day 10 to Day 35): 0.5%
Clinically relevant non-major bleeding events, incidence ([4]; all phases of the study): 4.0%
Major bleeding events, incidence ([4]; all phases of the study): 1.6%
Minimal bleeding events, incidence ([4]; all phases of the study): 9.6%
Major bleeding, RR vs enoxaparin-placebo ([4]; entire MAGELLAN population, through Day 35): 2.87
Fatal bleeds, incidence ([4]; entire population, Day 10): 0.1%
Major bleeding, relative risk ([4]; entire population, Day 10): 2.18
Fatal bleeds, incidence ([4]; entire population, Day 35): 0.2%
Pulmonary embolism confirmed (deaths), number ([4]; entire study duration): 2 subjects
Investigator-reported deaths, incidence [4, 5]: 7.0%
VTE-related deaths, incidence [4, 5]: 1.0%
Major bleeding events, incidence ([4]; follow-up phase): 0.6%
Bleeding events that required blood transfusions of 2 units ([4]; in vivo): 0.6%
Bleeding events that resulted in a fall of Hb to ≥2 g/dL ([4]; in vivo): 0.8%
Investigator-reported TEAEs leading to permanent discontinuation of study drug ([4]; in vivo): 3.1%
Clinically relevant bleeding events, incidence [4, 6]: 2.8%
Relative risk, clinically relevant bleeding [4, 6]: 2.272
Clinically relevant bleeding events, incidence [4, 7]: 4.1%
Relative risk, clinically relevant bleeding [4, 7]: 2.46 and 2.455
Clinically relevant bleeding events, incidence [4, 8]: 1.4%
Relative risk, clinically relevant bleeding [4, 8]: 2.958
